In assay [1] the target is sGC α1/β1 heterodimer (Homo sapiens (Human), UniProt Q02108+Q02153). Nature of the assay: Cell-based sGC functional assay (CASA assay), cGMP by HTRF. The conditions noted are these: CHO-K1/sGC cells; for Emax: CHO-K1, cGMP production as percentage of maximum of compound A (set to 100%), read-out: % Activation; for EC50: inflection point of cGMP production, 4P fit, read-out: IP. The method, boiled down:
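CHO-K1 cells stably expressing human sGC α1/β1, with 0.5 mM IBMX, pre-incubated ±1 μM DETA-NO 30 min at 25° C, then compound 1 hr at 37° C (2.5% DMSO). cGMP by HTRF; activation as % of reference activator maximum, 4P fit giving inflection point and maximum […].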

The target in assay [2] is human recombinant sGC enzyme (Homo sapiens (Human), UniProt Q02108+Q02153). Nature of the assay: SEC competition binding assay with [3H] Compound B radioligand. The conditions noted are these: displacement of 1.6 nM [3H] Compound B, 24 h at 37° C. The method, boiled down:
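Recombinant human sGC incubated with 1.6 nM [3H] Compound B and test compounds for 24 h at 37° C. Buffer: 50 mM triethanolamine pH 7.4, 3 mM MgCl2, 0.025% BSA, 2 mM DTT, 300 μM DETA/NO, 400 μM GTP, 1% DMSO. Bound ligand separated by gel filtration and counted by scintillation; non-specific binding with 1 μM Compound B; Ki from one-site fit.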

The structures appear in SMILES notation.

On to `CC1(c2ccc(O)cc2)C(=O)Nc2nc(-c3cn4ccnc4c(CCC4CCCCC4)n3)nc(N)c21` (stereo not drawn) [Example 85-B, 4-Amino-2-(8-(2-cyclohexylethyl)imidazo[1,2-a]pyrazin-6-yl)-5-(4-hydroxyphenyl)-5-methyl-5,7-dihydro-6H-pyrrolo[2,3-d]pyrimidin-6-one], for which, in assay [1], the Emax amounted to 130% and the EC50 was found to be 605 nM. In assay [2], the Ki (as a rule, a measure of affinity in units of concentration, obtained from inhibition or displacement) amounted to 4.82 nM.

For `Cc1cc(C2(C)C(=O)Nc3nc(-c4cn5ccnc5c(Cc5cccc(F)c5)n4)nc(N)c32)ccc1O` (stereo not drawn) [Example 45-A, 4-Amino-2-{8-[(3-fluorophenyl)methyl]imidazo[1,2-a]pyrazin-6-yl}-5-(4-hydroxy-3-methylphenyl)-5-methyl-5,7-dihydro-6H-pyrrolo[2,3-d]pyrimidin-6-one], in assay [1], the Emax was 120% and the EC50 turned out to be 1570 nM. Also, in assay [2], the Ki was 0.565 nM.

Turning to `CC1(c2ccc(O)c(F)c2)C(=O)Nc2nc(-c3cn4ncnc4c(CCC(F)(F)C(F)(F)F)n3)nc(N)c21` (racemic) [Example 116-B, 4-Amino-5-(3-fluoro-4-hydroxyphenyl)-5-methyl-2-(8-(3,3,4,4,4-pentafluorobutyl)-[1,2,4]triazolo[1,5-a]pyrazin-6-yl)-5,7-dihydro-6H-pyrrolo-[2,3-d]pyrimidin-6-one], in assay [1], the Emax is 137% and the EC50 amounted to 95 nM. Also, the Ki in assay [2] is 6.37 nM.

In the case of `CC1(c2cc(O)c(C#N)c(F)c2)C(=O)Nc2nc(-c3cn4ccnc4c(Cc4cc(F)cc(F)c4F)n3)nc(N)c21` (stereo not drawn) [Example 102-B, 4-(4-Amino-5-methyl-6-oxo-2-{8-[(2,3,5-trifluorophenyl)methyl]imidazo[1,2-a]pyrazin-6-yl}-6,7-dihydro-5H-pyrro1o[2,3-d]pyrimidin-5-yl)-2-fluoro-6-hydroxybenzonitrile], in assay [1], the Emax is 73% and the EC50 came to 382 nM. Moreover, the Ki in assay [2] stood at 0.118 nM.

In the case of `CC1(c2ccc(Cl)c(O)c2)C(=O)Nc2nc(-c3cn4ccnc4c(Cc4ccc(F)c(F)c4)n3)nc(N)c21` (stereo not drawn) [Example 20-A, 4-Amino-5-(4-chloro-3-hydroxyphenyl)-2-{8-[(3,4-difluorophenyl)methyl]imidazo[1,2-a]pyrazin-6-yl}-5-methyl-5,7-dihydro-6H-pyrrolo[2,3-d]pyrimidin-6-one], in assay [1], the Emax came to 130% and the EC50 came to 127 nM. For the same compound, in assay [2], the Ki is 0.173 nM.

`CC1(c2cc(O)c(Cl)c(F)c2)C(=O)Nc2nc(-c3cn4ccnc4c(Cc4cc(F)cc(F)c4)n3)nc(N)c21` (stereo not drawn) [Example 16-B, 4-Amino-5-(4-chloro-3-fluoro-5-hydroxyphenyl)-2-{8-[(3,5-difluorophenyl)methyl]imidazo[1,2-a]pyrazin-6-yl}-5-methyl-5,7-dihydro-6H-pyrrolo[2,3-d]pyrimidin-6-one]: in assay [1], the Emax came out at 94% and the EC50 was 308 nM. Moreover, the Ki in assay [2] came out at 0.158 nM.

On to `CC1(c2cc(O)c(Cl)c(F)c2)C(=O)Nc2nc(-c3cn4ncnc4c(CC4CCCCC4)n3)nc(N)c21` (stereo not drawn) [Example 21-B, 4-Amino-5-(4-chloro-3-fluoro-5-hydroxyphenyl)-2-(8-(cyclohexylmethyl)-[1,2,4]triazolo[1,5-a]pyrazin-6-yl)-5-methyl-5,7-dihydro-6H-pyrrolo[2,3-d]pyrimidin-6-one], for which, in assay [1], the Emax is 143% and the EC50 is 95 nM. Also, the Ki in assay [2] was found to be 0.206 nM.

For the compound `CC1(c2ccc(Cl)c(O)c2)C(=O)Nc2nc(-c3cn4ncnc4c(Cc4ccc(F)cc4)n3)nc(N)c21` (stereo not drawn) [Example 26-A, 4-Amino-5-(4-chloro-3-hydroxyphenyl)-2-{8-[(4-fluorophenyl)methyl]-[1,2,4]triazolo[1,5-a]pyrazin-6-yl}-5-methyl-5,7-dihydro-6H-pyrrolo[2,3-d]pyrimidin-6-one], in assay [1], the Emax was 105% and the EC50 stood at 426 nM. In addition, the Ki in assay [2] turned out to be 0.276 nM.

As for `CCCCc1nc(-c2nc(N)c3c(n2)NC(=O)C3(C)c2cc(O)ccn2)cn2ncnc12` (stereo not drawn) [Example 118-B, 4-Amino-2-(8-butyl-[1,2,4]triazolo[1,5-a]-pyrazin-6-yl)-5-(4-hydroxypyridin-2-yl)-5-methyl-5,7-dihydro-6H-pyrrolo[2,3-d]-pyrimidin-6-one], in assay [1], the Emax turned out to be 103% and the EC50 is 457 nM. Further, the Ki in assay [2] was 7.95 nM.

Regarding `CC1(c2cc(O)ccn2)C(=O)Nc2nc(-c3cn4ncnc4c(Cc4cccc(F)c4)n3)nc(N)c21` (stereo not drawn) [Example 110-B, 4-Amino-2-{8-[(3-fluorophenyl)methyl]-[1,2,4]triazolo[1,5-a]-pyrazin-6-yl}-5-(4-hydroxypyridin-2-yl)-5-methyl-5,7-dihydro-6H-pyrrolo[2,3-d]pyrimidin-6-one], in assay [1], the Emax stood at 159% and the EC50 stood at 437 nM. In addition, in assay [2], the inhibition constant (Ki) is 1.62 nM.

`CC1(c2ccc(Cl)c(O)c2)C(=O)Nc2nc(-c3cn4ccnc4c(CCC(F)(F)C(F)(F)F)n3)nc(N)c21` (stereo not drawn) [Example 65-A, 4-Amino-5-(4-chloro-3-hydroxyphenyl)-5-methyl-2-(8-(3,3,4,4,4-pentafluorobutyl)imidazo[1,2-a]pyrazin-6-yl)-5,7-dihydro-6H-pyrrolo[2,3-d]pyrimidin-6-one]: in assay [1], the Emax is 85% and the EC50 stood at 797 nM. In addition, the Ki in assay [2] stood at 2.26 nM.

As for `CCCCc1nc(-c2nc(N)c3c(n2)NC(=O)C3(C)c2ccc(C(F)(F)F)c(O)c2)cn2ncnc12` (stereo not drawn) [Example 61-B, 4-Amino-2-(8-butyl-[1,2,4]triazolo[1,5-a]pyrazin-6-yl)-5-(3-hydroxy-4-(trifluoromethyl)phenyl)-5-methyl-5,7-dihydro-6H-pyrrolo[2,3-d]pyrimidin-6-one], in assay [1], the Emax was 105% and the EC50 was found to be 121 nM. Besides, the Ki in assay [2] turned out to be 2.08 nM.

Take `CC1(c2ccc(F)c(O)c2)C(=O)Nc2nc(-c3cn4ccnc4c(CCC4CCCCC4)n3)nc(N)c21` (stereo not drawn) [Example 86-B, 4-Amino-2-(8-(2-cyclohexylethyl)imidazo[1,2-a]pyrazin-6-yl)-5-(4-fluoro-3-hydroxyphenyl)-5-methyl-5,7-dihydro-6H-pyrrolo[2,3-d]pyrimidin-6-one]: in assay [1], the Emax turned out to be 122% and the EC50 is 166 nM. Moreover, the Ki in assay [2] came out at 2.22 nM.

As to `CC1(c2cccc(O)c2)C(=O)Nc2nc(-c3cn4ccnc4c(Cc4ccc(F)cc4)n3)nc(N3CCC(F)(F)CC3)c21` (stereo not drawn) [Example 135-B, 4-(4,4-Difluoropiperidin-1-yl)-2-{8-[(4-fluoro-phenyl)methyl]imidazo-[1,2-a]-pyrazin-6-yl}-5-(3-hydroxyphenyl)-5-methyl-5,7-dihydro-6H-pyrrolo[2,3-d]pyrimidin-6-one], in assay [1], the Emax amounted to 103% and the EC50 was found to be 966 nM. Moreover, the Ki in assay [2] turned out to be 4.01 nM.

As to `CC1(c2nccc(O)c2Cl)C(=O)Nc2nc(-c3cn4ccnc4c(Cc4cc(F)cc(F)c4)n3)nc(N)c21` (stereo not drawn) [Example 111-B, 4-Amino-5-(3-chloro-4-hydroxypyridin-2-yl)-2-{8-[(3,5-difluorophenyl)-methyl]imidazo[1,2-a]-pyrazin-6-yl}-5-methyl-5,7-dihydro-6H-pyrrolo-[2,3-d]pyrimidin-6-one], in assay [1], the Emax amounted to 86% and the EC50 came to 1540 nM. The Ki in assay [2] was 1.74 nM.

Consider `CCCCc1nc(-c2nc(N)c3c(n2)NC(=O)C3(C)c2cc(O)c(Cl)c(F)c2)cn2ccnc12` (stereo not drawn) [Example 39-B, 4-Amino-2-(8-butylimidazo[1,2-a]pyrazin-6-yl)-5-(4-chloro-3-fluoro-5-hydroxyphenyl)-5-methyl-5,7-dihydro-6H-pyrrolo[2,3-d]pyrimidin-6-one], for which, in assay [1], the Emax stood at 101% and the EC50 worked out at 873 nM. The Ki in assay [2] was 0.446 nM.

Turning to `CC1(c2ccc(Cl)c(O)c2)C(=O)Nc2nc(-c3cn4ccnc4c(CC4CCC(F)(F)CC4)n3)nc(N)c21` (stereo not drawn) [Example 95-A, 4-Amino-5-(4-chloro-3-hydroxyphenyl)-2-(8-((4,4-difluorocyclohexyl)methyl)imidazo [1,2-a]pyrazin-6-yl)-5-methyl-5,7-dihydro-6H-pyrrolo[2,3-d]pyrimidin-6-one], in assay [1], the Emax was found to be 96% and the EC50 came out at 1810 nM. Besides, the Ki in assay [2] came out at 14.4 nM.

On to `CC1(c2cc(O)c(Cl)c(F)c2)C(=O)Nc2nc(-c3cn4ncnc4c(Cc4ccccc4F)n3)nc(N)c21` (stereo not drawn) [Example 10-B, 4-Amino-5-(4-chloro-3-fluoro-5-hydroxyphenyl)-2-{8-[(2-fluorophenyl)methyl]-[1,2,4]triazolo[1,5-a]pyrazin-6-yl}-5-methyl-5,7-dihydro-6H-pyrrolo[2,3-d]pyrimidin-6-one], for which, in assay [1], the Emax was determined as 132% and the EC50 was 25 nM. Moreover, in assay [2], the Ki amounted to 0.128 nM.

On to `CC1(c2ccc(C(F)(F)F)c(O)c2)C(=O)Nc2nc(-c3cn4ccnc4c(Cc4cc(F)cc(F)c4F)n3)nc(N)c21` (stereo not drawn) [Example 33-B, 4-Amino-5-(3-hydroxy-4-(trifluoromethyl)phenyl)-5-methyl-2-{8-[(2,3,5-trifluorophenyl)methyl]imidazo[1,2-a]pyrazin-6-yl}-5,7-dihydro-6H-pyrrolo[2,3-d]pyrimidin-6-one], for which, in assay [1], the Emax was found to be 111% and the EC50 was 260 nM. Also, the Ki in assay [2] was 0.312 nM.

For the origin of these results see patent publication US10780092B2, “Fused pyrazine derivatives useful as soluble guanylate cyclase stimulators” (Merck Sharp & Dohme Corp., priority 2016, dated 2020).
